Data on 1 compound can be found in patent EP2687213B1, “Solid forms comprising (+)-2-[1-(3-ethoxy-4-methoxyphenyl)-2-methylsulfonylethyl]-4-acetylaminoisoindoline-1,3-dione, compositions thereof, and uses thereof” (CELGENE CORPORATION, priority 2008, dated 2009).

One series concerns bovine PDE1. Nature of the series: PDE1 enzyme assay. The settings on record: from PDE inhibition data of Table 1. The class given is biochemical.
The test system of series [1] is LPS-induced pulmonary neutrophilia. Briefly: LPS-induced lung neutrophilia conscious ferret model. In kind it is in vivo. The note with it: threshold emetic dose divided by ED50 for pulmonary neutrophilia. From the text: The conscious ferret model has been used to investigate anti-inflammatory, emetic and behavioral effects of PDE4 inhibitors when administered by the oral (p.o.) route. From these experiments, a therapeutic index (TI) for each PDE4 inhibitor may be determined. The TI has been calculated by dividing the threshold dose for causing emetic episodes and behavioral changes by the anti-inflammatory dose (dose that causes 50% inhibition of the LPS-induced neutrophilia). […]
Thirty minutes after p.o. dosing with compound or vehicle control, the ferrets were placed into sealed Perspex containers and exposed to an aerosol of LPS (100 µg/ml) for 10 minutes. […] Observation continued for a period of at least 2.5 hours post p.o. dosing and emetic episodes and behavioral changes were recorded. […]
The bronchoalveolar lavage (BAL) samples were centrifuged at 1,500 rpm for 5 minutes. […] From this, the total number of neutrophils in the BAL was determined.
• 1. % Inhibition of LPS-induced pulmonary neutrophilia. • 2. Emetic episodes - the number of vomits and retches were counted. • 3. […] Any behavioral changes were semi-quantified by applying a severity rating (mild, moderate or severe). • 4. The TI was calculated as the highest dose found to not cause emetic episodes divided by the lowest dose found to inhibit pulmonary neutrophilia by 50% or more.

On to `CCOc1cc(C(CS(C)(=O)=O)N2C(=O)c3cccc(NC(C)=O)c3C2=O)ccc1OC` (single isomer, unassigned; (+)) [Compound A, (+)-2-[1-(3-ethoxy-4-methoxyphenyl)-2-methylsulfonylethyl]-4-acetylaminoisoindoline-1,3-dione], for which the “PDE Specificity Ratio PDE4/PDE1” value in the series on bovine PDE1 is reported as over 500 fold. In addition, in series [1], the Therapeutic index came to 12.
